In ChEMBL document CHEMBL4507286 (2021):

Columns and labels:
[1] = test system: Tyrosine-protein kinase ABL1 (Homo sapiens), P00519 [F317I]
[2] = biological target: 5'-AMP-activated protein kinase catalytic subunit alpha-1 (Homo sapiens) (UniProt Q13131)
[3] = biological target: Ankyrin repeat and protein kinase domain-containing protein 1 (Homo sapiens) (UniProt Q8NFD2)
[4] = test system: Epidermal growth factor receptor (Homo sapiens), P00533 [L858R]
[5] = test system: Epidermal growth factor receptor (Homo sapiens), P00533 [L858R,T790M]
[6] = test system: Epidermal growth factor receptor (Homo sapiens), P00533 [T790M]
[7] = biological target: Fibroblast growth factor receptor 1 (Homo sapiens) (UniProt P11362)
[8] = test system: Receptor-type tyrosine-protein kinase FLT3 (Homo sapiens), P36888 [UNDEFINED MUTATION]
[9] = test system: Receptor-type tyrosine-protein kinase FLT3 (Homo sapiens), P36888 [K663Q]
[10] = biological target: Hormonally up-regulated neu tumor-associated kinase (Homo sapiens) (UniProt P57058)
[11] = biological target: Insulin-like growth factor 1 receptor (Homo sapiens) (UniProt P08069)
[12] = biological target: Mitogen-activated protein kinase 8 (Homo sapiens) (UniProt P45983)
[13] = biological target: Mitogen-activated protein kinase 10 (Homo sapiens) (UniProt P53779)
[14] = biological target: Tyrosine-protein kinase Lyn (Homo sapiens) (UniProt P07948)
[15] = biological target: Serine/threonine-protein kinase mTOR (Homo sapiens) (UniProt P42345)
[16] = biological target: Myosin light chain kinase 2, skeletal/cardiac muscle (Homo sapiens) (UniProt Q9H1R3)
[17] = biological target: Serine/threonine-protein kinase Nek11 (Homo sapiens) (UniProt Q8NG66)
[18] = biological target: Mitogen-activated protein kinase kinase kinase 14 (Homo sapiens) (UniProt Q99558)
[19] = biological target: Serine/threonine-protein kinase NIM1 (Homo sapiens) (UniProt Q8IY84)
[20] = biological target: Serine/threonine-protein kinase NLK (Homo sapiens) (UniProt Q9UBE8)
[21] = biological target: Cyclin-dependent kinase 17 (Homo sapiens) (UniProt Q00537)
[22] = biological target: Cyclin-dependent kinase 15 (Homo sapiens) (UniProt Q96Q40)
[23] = biological target: Cyclin-dependent kinase 14 (Homo sapiens) (UniProt O94921)
[24] = biological target: Phosphorylase b kinase gamma catalytic chain, skeletal muscle/heart isoform (Homo sapiens) (UniProt Q16816)
[25] = biological target: cGMP-dependent protein kinase 1 (Homo sapiens) (UniProt Q13976)
[26] = biological target: Proto-oncogene tyrosine-protein kinase receptor Ret (Homo sapiens) (UniProt P07949)
[27] = biological target: Receptor-interacting serine/threonine-protein kinase 2 (Homo sapiens) (UniProt O43353)
[28] = biological target: Rho-associated protein kinase 1 (Homo sapiens) (UniProt Q13464)
[29] = biological target: Ribosomal protein S6 kinase alpha-5 (Homo sapiens) (UniProt O75582)
[30] = biological target: Ribosomal protein S6 kinase alpha-3 (Homo sapiens) (UniProt P51812)
[31] = biological target: Ribosomal protein S6 kinase beta-1 (Homo sapiens) (UniProt P23443)
[32] = biological target: SNF-related serine/threonine-protein kinase (Homo sapiens) (UniProt Q9NRH2)
[33] = biological target: Serine/threonine-protein kinase 33 (Homo sapiens) (UniProt Q9BYT3)
[34] = biological target: Mitogen-activated protein kinase kinase kinase 7 (Homo sapiens) (UniProt O43318)
[35] = biological target: Serine/threonine-protein kinase TAO1 (Homo sapiens) (UniProt Q7L7X3)
[36] = biological target: Serine/threonine-protein kinase TAO3 (Homo sapiens) (UniProt Q9H2K8)
[37] = biological target: TGF-beta receptor type-1 (Homo sapiens) (UniProt P36897)
[38] = biological target: Transient receptor potential cation channel subfamily M member 6 (Homo sapiens) (UniProt Q9BX84)
[39] = biological target: Phosphatidylinositol 3-kinase catalytic subunit type 3 (Homo sapiens) (UniProt Q8NEB9)
[40] = biological target: Serine/threonine-protein kinase WNK4 (Homo sapiens) (UniProt Q96J92)
[41] = biological target: 5-hydroxytryptamine receptor 5A (Homo sapiens) (UniProt P47898); settings: Compound concentration 10.0 uM
[42] = biological target: Beta-1 adrenergic receptor (Homo sapiens) (UniProt P08588); settings: Compound concentration 10.0 uM
[43] = biological target: GABA-A receptor; anion channel (Rattus norvegicus) (UniProt O09028+P15431+P18506+P18508+P19969+P20236+P23574+P23576+P28471+P28473+P30191+P62813+P63079+P63138+Q91ZM7+Q9ES14); settings: Compound concentration 10.0 uM
[44] = Compound concentration 1000.0 nM
[45] = Compound concentration 100.0 nM

Chain of Serine/threonine-protein kinase NLK (Homo sapiens) (Q9UBE8 whole entry): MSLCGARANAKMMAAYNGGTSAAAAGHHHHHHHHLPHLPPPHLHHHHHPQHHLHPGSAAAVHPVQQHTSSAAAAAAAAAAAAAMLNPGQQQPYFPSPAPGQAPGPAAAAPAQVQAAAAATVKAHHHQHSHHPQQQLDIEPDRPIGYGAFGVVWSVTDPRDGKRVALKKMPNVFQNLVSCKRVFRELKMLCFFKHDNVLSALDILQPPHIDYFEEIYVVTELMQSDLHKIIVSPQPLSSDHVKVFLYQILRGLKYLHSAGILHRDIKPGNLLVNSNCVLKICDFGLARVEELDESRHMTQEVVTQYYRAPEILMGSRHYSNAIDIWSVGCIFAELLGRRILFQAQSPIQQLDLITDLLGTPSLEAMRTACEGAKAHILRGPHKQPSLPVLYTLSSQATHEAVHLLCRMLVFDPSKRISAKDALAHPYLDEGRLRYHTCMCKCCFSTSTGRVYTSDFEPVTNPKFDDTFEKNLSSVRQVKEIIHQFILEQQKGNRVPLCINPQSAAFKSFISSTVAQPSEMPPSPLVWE
Chain of Mitogen-activated protein kinase kinase kinase 14 (Homo sapiens) (Q99558 whole entry, looked up): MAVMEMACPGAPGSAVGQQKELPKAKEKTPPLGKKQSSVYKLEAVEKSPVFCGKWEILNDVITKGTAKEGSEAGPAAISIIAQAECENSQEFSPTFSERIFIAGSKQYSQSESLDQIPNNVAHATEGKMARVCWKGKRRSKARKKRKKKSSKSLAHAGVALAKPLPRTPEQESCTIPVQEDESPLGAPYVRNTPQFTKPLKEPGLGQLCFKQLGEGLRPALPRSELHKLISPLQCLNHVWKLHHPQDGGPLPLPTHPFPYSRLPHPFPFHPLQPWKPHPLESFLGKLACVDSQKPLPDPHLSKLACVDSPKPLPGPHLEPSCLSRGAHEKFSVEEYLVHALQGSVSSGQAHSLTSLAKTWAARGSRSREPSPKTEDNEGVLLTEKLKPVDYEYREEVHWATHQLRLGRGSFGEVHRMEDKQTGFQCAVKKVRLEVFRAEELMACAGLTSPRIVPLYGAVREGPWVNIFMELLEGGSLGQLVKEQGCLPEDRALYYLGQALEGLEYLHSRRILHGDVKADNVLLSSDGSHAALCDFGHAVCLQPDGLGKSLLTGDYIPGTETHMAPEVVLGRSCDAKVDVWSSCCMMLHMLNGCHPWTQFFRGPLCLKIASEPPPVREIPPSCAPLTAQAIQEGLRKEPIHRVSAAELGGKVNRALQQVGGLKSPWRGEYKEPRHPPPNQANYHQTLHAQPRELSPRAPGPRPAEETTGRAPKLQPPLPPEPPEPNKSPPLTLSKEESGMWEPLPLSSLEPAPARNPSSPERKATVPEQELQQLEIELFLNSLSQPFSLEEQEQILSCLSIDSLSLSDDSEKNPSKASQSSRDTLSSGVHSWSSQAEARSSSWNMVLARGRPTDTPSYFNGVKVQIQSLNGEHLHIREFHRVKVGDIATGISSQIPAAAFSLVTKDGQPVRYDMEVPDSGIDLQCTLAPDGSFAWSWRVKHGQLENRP
Chain of Ankyrin repeat and protein kinase domain-containing protein 1 (Homo sapiens) (Q8NFD2 whole entry, the tested form may be a part): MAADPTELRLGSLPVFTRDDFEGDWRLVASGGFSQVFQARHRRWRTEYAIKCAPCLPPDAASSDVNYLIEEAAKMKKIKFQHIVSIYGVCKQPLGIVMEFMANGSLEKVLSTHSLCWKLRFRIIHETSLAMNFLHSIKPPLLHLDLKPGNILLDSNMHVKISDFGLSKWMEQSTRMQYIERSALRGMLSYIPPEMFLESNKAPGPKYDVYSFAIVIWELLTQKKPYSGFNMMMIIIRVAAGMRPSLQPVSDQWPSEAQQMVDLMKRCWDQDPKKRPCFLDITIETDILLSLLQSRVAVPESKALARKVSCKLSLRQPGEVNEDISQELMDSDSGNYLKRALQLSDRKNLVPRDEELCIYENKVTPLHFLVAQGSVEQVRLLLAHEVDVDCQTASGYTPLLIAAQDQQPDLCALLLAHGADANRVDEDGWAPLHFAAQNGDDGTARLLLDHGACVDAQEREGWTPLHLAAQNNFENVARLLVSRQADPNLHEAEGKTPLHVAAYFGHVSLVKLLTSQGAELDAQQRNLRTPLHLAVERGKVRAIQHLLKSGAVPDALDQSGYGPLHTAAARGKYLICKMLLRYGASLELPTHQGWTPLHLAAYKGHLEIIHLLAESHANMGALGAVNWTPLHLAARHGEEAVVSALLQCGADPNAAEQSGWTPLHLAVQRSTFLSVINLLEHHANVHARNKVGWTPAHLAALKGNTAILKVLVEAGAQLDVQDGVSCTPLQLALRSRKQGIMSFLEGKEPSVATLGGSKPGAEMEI
Chain of Serine/threonine-protein kinase 33 (Homo sapiens) (Q9BYT3 whole entry, looked up): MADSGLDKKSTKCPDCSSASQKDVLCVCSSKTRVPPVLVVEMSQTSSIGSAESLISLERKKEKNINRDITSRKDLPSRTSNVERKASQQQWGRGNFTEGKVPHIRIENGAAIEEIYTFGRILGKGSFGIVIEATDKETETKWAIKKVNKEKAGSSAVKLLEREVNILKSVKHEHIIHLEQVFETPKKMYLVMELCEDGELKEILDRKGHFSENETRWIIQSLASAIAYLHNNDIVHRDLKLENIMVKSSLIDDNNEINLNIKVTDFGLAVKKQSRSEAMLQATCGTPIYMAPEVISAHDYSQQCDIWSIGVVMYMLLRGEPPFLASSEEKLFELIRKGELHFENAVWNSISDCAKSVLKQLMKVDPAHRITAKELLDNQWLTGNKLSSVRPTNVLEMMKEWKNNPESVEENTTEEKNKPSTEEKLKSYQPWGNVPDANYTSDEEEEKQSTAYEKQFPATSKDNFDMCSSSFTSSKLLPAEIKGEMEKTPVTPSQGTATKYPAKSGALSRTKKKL
Chain of SNF-related serine/threonine-protein kinase (Homo sapiens) (Q9NRH2 whole entry): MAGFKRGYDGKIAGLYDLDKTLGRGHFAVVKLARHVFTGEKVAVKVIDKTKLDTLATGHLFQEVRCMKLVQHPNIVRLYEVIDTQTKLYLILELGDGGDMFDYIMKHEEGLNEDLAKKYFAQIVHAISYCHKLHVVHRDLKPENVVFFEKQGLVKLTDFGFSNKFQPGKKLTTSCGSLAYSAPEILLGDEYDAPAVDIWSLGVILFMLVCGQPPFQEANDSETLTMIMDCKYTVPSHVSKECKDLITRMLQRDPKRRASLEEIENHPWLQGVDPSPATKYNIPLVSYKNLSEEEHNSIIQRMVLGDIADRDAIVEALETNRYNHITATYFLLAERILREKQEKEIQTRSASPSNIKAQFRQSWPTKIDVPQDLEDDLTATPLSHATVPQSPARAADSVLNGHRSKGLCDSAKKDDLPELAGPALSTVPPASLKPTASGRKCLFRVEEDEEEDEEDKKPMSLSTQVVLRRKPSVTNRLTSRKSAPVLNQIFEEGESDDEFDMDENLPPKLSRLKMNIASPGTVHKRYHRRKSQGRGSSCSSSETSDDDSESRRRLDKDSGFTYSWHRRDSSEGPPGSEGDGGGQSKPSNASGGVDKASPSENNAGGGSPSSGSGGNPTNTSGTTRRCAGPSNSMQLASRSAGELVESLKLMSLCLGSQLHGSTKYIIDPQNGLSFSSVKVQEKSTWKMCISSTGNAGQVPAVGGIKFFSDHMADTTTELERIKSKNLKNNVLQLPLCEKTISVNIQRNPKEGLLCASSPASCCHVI
Chain of Cyclin-dependent kinase 15 (Homo sapiens) (Q96Q40 whole entry): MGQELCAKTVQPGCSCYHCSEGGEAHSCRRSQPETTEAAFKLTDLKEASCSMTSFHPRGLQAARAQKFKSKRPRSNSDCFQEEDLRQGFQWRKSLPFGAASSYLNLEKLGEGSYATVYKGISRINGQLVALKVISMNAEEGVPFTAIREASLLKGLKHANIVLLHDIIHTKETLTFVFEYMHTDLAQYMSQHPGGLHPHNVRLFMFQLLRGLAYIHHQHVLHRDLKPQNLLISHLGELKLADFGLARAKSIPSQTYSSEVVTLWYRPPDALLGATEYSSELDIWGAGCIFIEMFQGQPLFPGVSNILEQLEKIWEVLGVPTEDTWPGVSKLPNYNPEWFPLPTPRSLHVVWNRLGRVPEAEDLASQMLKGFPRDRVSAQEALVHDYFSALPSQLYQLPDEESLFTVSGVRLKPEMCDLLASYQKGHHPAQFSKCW
Chain of Proto-oncogene tyrosine-protein kinase receptor Ret (Homo sapiens) (P07949 whole entry): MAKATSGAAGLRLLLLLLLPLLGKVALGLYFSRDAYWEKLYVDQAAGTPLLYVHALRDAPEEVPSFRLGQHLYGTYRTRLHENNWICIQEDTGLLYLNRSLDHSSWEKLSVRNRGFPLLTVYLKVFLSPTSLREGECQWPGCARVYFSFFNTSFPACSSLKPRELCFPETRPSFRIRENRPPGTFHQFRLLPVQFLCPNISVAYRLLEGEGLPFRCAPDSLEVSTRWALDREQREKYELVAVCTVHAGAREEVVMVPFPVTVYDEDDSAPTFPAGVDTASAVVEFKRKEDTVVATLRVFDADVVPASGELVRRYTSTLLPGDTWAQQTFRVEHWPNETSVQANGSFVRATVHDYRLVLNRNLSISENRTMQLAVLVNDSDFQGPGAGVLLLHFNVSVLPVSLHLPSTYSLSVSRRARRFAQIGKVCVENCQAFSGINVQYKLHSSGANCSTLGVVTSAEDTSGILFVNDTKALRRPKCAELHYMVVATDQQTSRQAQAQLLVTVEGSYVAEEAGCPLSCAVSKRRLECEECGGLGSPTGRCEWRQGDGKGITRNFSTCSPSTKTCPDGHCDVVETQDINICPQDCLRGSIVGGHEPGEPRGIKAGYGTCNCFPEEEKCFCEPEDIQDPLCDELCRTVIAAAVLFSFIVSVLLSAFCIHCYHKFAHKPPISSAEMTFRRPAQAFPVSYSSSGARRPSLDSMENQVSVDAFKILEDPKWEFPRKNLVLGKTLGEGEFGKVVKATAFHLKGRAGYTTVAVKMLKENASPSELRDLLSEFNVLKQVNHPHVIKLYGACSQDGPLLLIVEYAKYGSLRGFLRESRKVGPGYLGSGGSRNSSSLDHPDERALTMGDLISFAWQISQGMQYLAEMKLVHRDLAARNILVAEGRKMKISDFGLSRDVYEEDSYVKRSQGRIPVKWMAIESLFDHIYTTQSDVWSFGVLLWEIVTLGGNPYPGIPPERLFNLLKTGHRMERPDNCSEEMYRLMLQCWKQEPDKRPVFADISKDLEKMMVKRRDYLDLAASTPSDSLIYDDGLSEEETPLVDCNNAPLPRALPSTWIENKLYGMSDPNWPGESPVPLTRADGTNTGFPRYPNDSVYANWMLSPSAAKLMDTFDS

C[C@H](NC(=O)Nc1cc2[nH]ncc2c(CO)n1)c1ccccn1 [ERKi-NC]
inactive: residual activity [1, 44] 100% | residual activity [2, 44] 100% | residual activity [3, 44] 100% | residual activity [4, 44] 100% | residual activity [5, 44] 100% | residual activity [6, 44] 100% | residual activity [7, 44] 78% | residual activity [8, 44] 100% | residual activity [9, 44] 93.5% | residual activity [10, 44] 100% | residual activity [11, 44] 100% | residual activity [12, 44] 63.3% | residual activity [13, 44] 74.6% | residual activity [14, 44] 100% | residual activity [15, 44] 93.1% | residual activity [16, 44] 76.6% | residual activity [17, 44] 57.7% | residual activity [18, 44] 85% | residual activity [19, 44] 100% | residual activity [20, 44] 66.3% | residual activity [21, 44] 78% | residual activity [22, 44] 97.4% | residual activity [23, 44] 100% | residual activity [24, 44] 96.3% | residual activity [25, 44] 90.7% | residual activity [26, 44] 100% | residual activity [27, 44] 77% | residual activity [28, 44] 66% | residual activity [29, 44] 100% | residual activity [30, 44] 79.5% | residual activity [31, 44] 58.3% | residual activity [32, 44] 100% | residual activity [33, 44] 100% | residual activity [34, 44] 100% | residual activity [35, 44] 100% | residual activity [36, 44] 100% | residual activity [37, 44] 60.8% | residual activity [38, 44] 92.7% | residual activity [39, 44] 97% | residual activity [40, 44] 100% | inhibition [41] 9.46% | inhibition [42] 28.2% | inhibition [43] 20.2%

C[C@@H](NC(=O)Nc1cc2[nH]ncc2c(CO)n1)c1ccccc1 [ERKi]
inactive: residual activity [1, 45] 80.2% | residual activity [2, 45] 91% | residual activity [3, 45] 78.2% | residual activity [4, 45] 86.7% | residual activity [5, 45] 100% | residual activity [6, 45] 82.1% | residual activity [7, 45] 94.1% | residual activity [8, 45] 100% | residual activity [9, 45] 96.5% | residual activity [10, 45] 100% | residual activity [11, 45] 97.9% | residual activity [12, 45] 93.7% | residual activity [13, 45] 68.1% | residual activity [14, 45] 84.5% | residual activity [15, 45] 71.8% | residual activity [16, 45] 100% | residual activity [17, 45] 83.4% | residual activity [18, 45] 100% | residual activity [19, 45] 100% | residual activity [20, 45] 100% | residual activity [21, 45] 95.9% | residual activity [22, 45] 80.6% | residual activity [23, 45] 100% | residual activity [24, 45] 84.1% | residual activity [25, 45] 52.4% | residual activity [26, 45] 92.6% | residual activity [27, 45] 90.3% | residual activity [28, 45] 64.7% | residual activity [29, 45] 87.8% | residual activity [30, 45] 85.4% | residual activity [31, 45] 90% | residual activity [32, 45] 100% | residual activity [33, 45] 100% | residual activity [34, 45] 82.6% | residual activity [35, 45] 66.4% | residual activity [36, 45] 73% | residual activity [37, 45] 100% | residual activity [38, 45] 96.4% | residual activity [39, 45] 71.2% | residual activity [40, 45] 100% | inhibition [41] 1.39% | inhibition [42] 6.72% | inhibition [43] 46.2%
